Data taken from patent publication US11866450B2, “Modulators of Cystic Fibrosis Transmembrane Conductance regulator, pharmaceutical compositions, methods of treatment, and process for making the modulators” (priority 2018, dated 2024).
Read-outs that look alike come from different tables or passages of the source.

How the values were obtained:
[1] = target: CFTR-mediated chloride transport (Homo sapiens, UniProt P13569); type: cell-based; conditions: enteroid cells incubated with test compound 18-24 hours, acute 10 μM forskolin and 300 nM Compound III; for Max. Activity: % of chloride transport with 3 μM Compound A, 3 μM Compound II and 300 nM acute Compound III triple combination control
Chain of CFTR-mediated chloride transport (P13569 whole entry, looked up): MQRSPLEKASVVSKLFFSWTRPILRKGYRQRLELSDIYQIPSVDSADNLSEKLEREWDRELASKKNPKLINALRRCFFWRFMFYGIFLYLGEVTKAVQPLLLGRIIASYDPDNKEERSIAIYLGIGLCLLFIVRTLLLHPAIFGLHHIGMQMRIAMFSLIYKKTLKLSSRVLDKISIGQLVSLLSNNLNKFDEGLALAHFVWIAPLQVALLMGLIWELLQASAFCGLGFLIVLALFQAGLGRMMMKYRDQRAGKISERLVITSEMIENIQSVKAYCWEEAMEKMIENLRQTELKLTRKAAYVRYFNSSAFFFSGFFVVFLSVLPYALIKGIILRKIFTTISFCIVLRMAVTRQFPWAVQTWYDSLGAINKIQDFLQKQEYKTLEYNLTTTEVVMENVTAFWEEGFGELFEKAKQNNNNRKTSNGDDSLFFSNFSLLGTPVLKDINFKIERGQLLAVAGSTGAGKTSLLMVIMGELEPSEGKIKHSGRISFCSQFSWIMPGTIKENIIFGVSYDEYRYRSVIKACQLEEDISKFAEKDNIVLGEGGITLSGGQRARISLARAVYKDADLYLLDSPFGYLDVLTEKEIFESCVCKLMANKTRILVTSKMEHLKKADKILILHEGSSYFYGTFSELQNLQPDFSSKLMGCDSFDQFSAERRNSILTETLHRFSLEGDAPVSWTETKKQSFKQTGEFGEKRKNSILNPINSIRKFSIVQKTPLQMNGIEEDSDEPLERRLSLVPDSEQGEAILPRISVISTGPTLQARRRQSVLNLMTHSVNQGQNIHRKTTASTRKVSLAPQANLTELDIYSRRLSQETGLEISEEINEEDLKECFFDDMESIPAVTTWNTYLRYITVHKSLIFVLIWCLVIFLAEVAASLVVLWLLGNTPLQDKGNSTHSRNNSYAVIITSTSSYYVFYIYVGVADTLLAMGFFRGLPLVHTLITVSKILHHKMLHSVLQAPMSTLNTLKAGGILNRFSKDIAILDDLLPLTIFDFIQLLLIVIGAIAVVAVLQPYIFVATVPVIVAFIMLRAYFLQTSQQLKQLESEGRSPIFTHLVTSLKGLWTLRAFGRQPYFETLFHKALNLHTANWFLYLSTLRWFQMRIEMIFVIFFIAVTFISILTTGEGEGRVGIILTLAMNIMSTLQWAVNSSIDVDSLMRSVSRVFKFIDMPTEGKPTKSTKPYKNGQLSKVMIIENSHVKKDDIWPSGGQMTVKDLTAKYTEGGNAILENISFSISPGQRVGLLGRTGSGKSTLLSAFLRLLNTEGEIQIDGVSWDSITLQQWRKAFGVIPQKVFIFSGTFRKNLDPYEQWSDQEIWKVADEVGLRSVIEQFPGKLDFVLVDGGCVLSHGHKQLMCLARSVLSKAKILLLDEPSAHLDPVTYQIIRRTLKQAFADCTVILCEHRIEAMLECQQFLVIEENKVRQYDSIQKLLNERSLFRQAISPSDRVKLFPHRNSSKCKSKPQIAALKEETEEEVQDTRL
In short: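 Human intestinal enteroid cells incubated with compound 18–24 h at 37° C., then membrane potential dye (FLIPR) read 15 min after chloride-free stimulation with 10 μM forskolin, 100 μM IBMX and 300 nM Compound III. AUC expressed as % of triple-combination control (3 μM Compound A, 3 μM Compound II, 300 nM Compound III).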

[2] = snar bond

Q: Which EC50 [1] does the source give for `CN1CCCC2CN(c3nc(-n4ccc(OCCC5(C(F)(F)F)CC5)n4)ccc3C(=O)NS(=O)(=O)c3cccc1n3)C(C)(C)C2` (stereo not drawn) [Compound 133, 12,12,18-trimethyl-8-(3-{2-[1-(trifluoromethyl)cyclopropyl]ethoxy}-1H-pyrazol-1-yl)-2λ^6-thia-3,9,11,18,23-pentaazatetracyclo[17.3.1.111,14.05,10]tetracosa-1(23),5(10),6,8,19,21-hexaene-2,2,4-trione] here?
A: Its EC50 is under 1000 nM.

Q: And the “Max. Activity” value [1]?
A: The value was “+++ (+++ is >60%)”.

Q: What about the ring closure, isolated yield ([2]; from CN(CCCC1CNC(C)(C)C1)c1cccc(S(=O)(=O)NC(=O)c2ccc(-n3ccc(OCCC4(C(F)(F)F)CC4)n3)nc2Cl)n1, 15-membered ring, K2CO3/CsF/3A MS, DMSO, 30.3 mM, 165.0 °C, 4.0 h) of the same molecule?
A: The ring closure, isolated yield was 42%.

Q: Which EC50 [1] does the source give for `[2H]C([2H])(CCOc1ccn(-c2ccc3c(n2)N2C[C@@H](CCCNc4cccc(n4)S(=O)(=O)NC3=O)CC2(C)C)n1)C1(C(F)(F)F)CC1` [Compound 269, (14S)-12,12-Dimethyl-8-(3-{3-[1-(trifluoromethyl)cyclopropyl]-3,3-dideuterio-propoxy}-1H-pyrazol-1-yl)-2λ^6-thia-3,9,11,18,23-pentaazatetracyclo[17.3.1.111,14.05,10]tetracosa-1(22),5(10),6,8,19(23),20-hexaene-2,2,4-trione] here?
A: The EC50 was under 1000 nM.

Q: What about the “Max. Activity” value [1] of the same molecule?
A: Its value is “+++ (+++ is >60%)”.

Q: What about the ring closure, isolated yield ([2]; from [2H]C([2H])(CCOc1ccn(-c2ccc(C(=O)NS(=O)(=O)c3cccc(NCCC[C@@H]4CN(C(=O)OC(C)(C)C)C(C)(C)C4)n3)c(Cl)n2)n1)C1(C(F)(F)F)CC1, 15-membered ring, TFA/DCM, then K2CO3/3A MS, DMSO, 30.5 mM, 150.0 °C, 2 steps) of the same molecule?
A: The ring closure, isolated yield was 24%.

Q: Which EC50 [1] does the source give for `CC1(C)CC2CCCNc3cccc(n3)S(=O)(=O)NC(=O)c3ccc(-n4ccc(OCCC5(C(F)(F)F)CC5)n4)nc3N1C2` (racemic) [Compound 12, 12,12-dimethyl-8-(3-{2-[1-(trifluoromethyl)cyclopropyl]ethoxy}-1H-pyrazol-1-yl)-2λ^6-thia-3,9,11,18,23-pentaazatetracyclo[17.3.1.111,14.05,10]tetracosa-1(23),5(10),6,8,19,21-hexaene-2,2,4-trione] here?
A: Its EC50 is under 1000 nM.

Q: And the “Max. Activity” value [1]?
A: Its value is “+++ (+++ is >60%)”.

Q: And the ring closure, isolated yield ([2]; from 2-chloro-N-[[6-[3-(5,5-dimethylpyrrolidin-3-yl)propylamino]-2-pyridyl]sulfonyl]-6-[3-[2-[1-(trifluoromethyl)cyclopropyl]ethoxy]pyrazol-1-yl]pyridine-3-carboxamide (dihydrochloride salt), 15-membered ring, K2CO3/CsF, NMP, 144.7 mM, 150.0 °C)?
A: Its ring closure, isolated yield is 67%.

Q: Which EC50 [1] does the source give for `CC1(C)CC2CCCCn3cc(cn3)S(=O)(=O)NC(=O)c3ccc(-n4ccc(OCCC5(C(F)(F)F)CC5)n4)nc3N1C2` (stereo not drawn) [Compound 122, 21,21-Dimethyl-4-(3-{2-[1-(trifluoromethyl)cyclopropyl]ethoxy}-1H-pyrazol-1-yl)-10λ^6-thia-1,3,9,13,14-pentaazatetracyclo[17.2.1.111,14.02,7]tricosa-2,4,6,11(23),12-pentaene-8,10,10-trione] here?
A: The EC50 was under 1000 nM.

Q: And the “Max. Activity” value [1]?
A: Its value is “++ (++ is 30-60%)”.

Q: What about the ring closure, isolated yield ([2]; from CC(C)(C)OC(=O)N1CC(CCCCn2cc(S(=O)(=O)NC(=O)c3ccc(-n4ccc(OCCC5(C(F)(F)F)CC5)n4)nc3Cl)cn2)CC1(C)C, 15-membered ring, K2CO3/CsF/3A MS, DMSO, 41.5 mM, 155.0 °C, 2 steps) of the same molecule?
A: Its ring closure, isolated yield is 50%.

Q: Which results are given for `CC1(C)CC2CCCCOc3ccc(cn3)S(=O)(=O)NC(=O)c3ccc(-n4ccc(OCCC5(C(F)(F)F)CC5)n4)nc3N1C2` (stereo not drawn) [Compound 94, 12,12-dimethyl-8-(3-{2-[1-(trifluoromethyl)cyclopropyl]ethoxy}-1H-pyrazol-1-yl)-19-oxa-2λ^6-thia-3,9,11,21-tetraazatetracyclo[18.2.2.111,14.05,10]pentacosa-1(23),5,7,9,20(24),21-hexaene-2,2,4-trione]?
A: EC50 [1]: > 3000 nM; Max. Activity [1]: + (+ is <30%); ring closure, isolated yield ([2]; from CC(C)(C)OC(=O)N1CC(CCCCOc2ccc(S(=O)(=O)NC(=O)c3ccc(-n4ccc(OCCC5(C(F)(F)F)CC5)n4)nc3Cl)cn2)CC1(C)C, 17-membered ring, HCl (Boc off), K2CO3/CsF/3A MS, DMSO, 59.4 mM, 150.0 °C, 2 steps): 26%

Q: Which EC50 [1] does the source give for `CC1(C)C[C@@H]2CCCNc3cccc(n3)S(=O)(=O)NC(=O)c3ccc(-n4ccc(OCCC(C5CC5)C5CC5)n4)nc3N1C2` [Compound 66, (14S)-8-[3-(3,3-dicyclopropylpropoxy)-1H-pyrazol-1-yl]-12,12-dimethyl-2λ^6-thia-3,9,11,18,23-pentaazatetracyclo[17.3.1.111,14.05,10]tetracosa-1(22),5,7,9,19(23),20-hexaene-2,2,4-trione] here?
A: The EC50 was under 1000 nM.

Q: What about the “Max. Activity” value [1] of the same molecule?
A: Its value is “+++ (+++ is >60%)”.

Q: And the ring closure, isolated yield ([2]; from CC1(C)C[C@H](CCCNc2cccc(S(=O)(=O)NC(=O)c3ccc(-n4ccc(OCCC(C5CC5)C5CC5)n4)nc3Cl)n2)CN1, 15-membered ring, K2CO3/CsF, NMP, 75.7 mM, 150.0 °C, 20.0 h)?
A: The ring closure, isolated yield was 63%.

Q: What does the source list for `CC1(C)C[C@@H]2CCCNc3cccc(n3)S(=O)(=O)NC(=O)c3ccc(-n4ccc(OCCC5C6(CC6)C56CC6)n4)nc3N1C2` [Compound 195, (14S)-8-[3-(2-{Dispiro[2.0.2.1]heptan-7-yl}ethoxy)-1H-pyrazol-1-yl]-12,12-dimethyl-2λ^6-thia-3,9,11,18,23-pentaazatetracyclo[17.3.1.111,14.05,10]tetracosa-1(22),5,7,9,19(23),20-hexaene-2,2,4-trione]?
A: EC50 [1]: < 1000 nM; Max. Activity [1]: +++ (+++ is >60%); ring closure, isolated yield ([2]; from CC1(C)C[C@H](CCCNc2cccc(S(=O)(=O)NC(=O)c3ccc(-n4ccc(OCCC5C6(CC6)C56CC6)n4)nc3Cl)n2)CN1, 15-membered ring, K2CO3, NMP, 55.8 mM, 150.0 °C, 22.0 h): 68%

Q: With `CC1(C)CC2CCCNc3cccc(n3)S(=O)(=O)NC(=O)c3ccc(-n4ccc(OCC5(C(F)(F)F)CC5)n4)nc3N1C2` (racemic) [Compound 15, 12,12-dimethyl-8-(3-{[1-(trifluoromethyl)cyclopropyl]methoxy}-1H-pyrazol-1-yl)-2λ^6-thia-3,9,11,18,23-pentaazatetracyclo[17.3.1.111,14.05,10]tetracosa-1(23),5(10),6,8,19,21-hexaene-2,2,4-trione] as the molecule, how does the EC50 [1] read?
A: Its EC50 is under 1000 nM.

Q: And the “Max. Activity” value [1]?
A: Its value is “+++ (+++ is >60%)”.

Q: What about the ring closure, isolated yield ([2]; from CC1(C)CC(CCCNc2cccc(S(=O)(=O)NC(=O)c3ccc(-n4ccc(OCC5(C(F)(F)F)CC5)n4)nc3Cl)n2)CN1, 15-membered ring, K2CO3/CsF/3A MS, DMSO, 43.8 mM, 150.0 °C, 16.0 h, 2 steps) of the same molecule?
A: The ring closure, isolated yield was 54%.

Q: What does the source list for `CC1(C)CC2CCCOc3cccc(n3)S(=O)(=O)NC(=O)c3ccc(-n4ccc(OCCC5(C(F)(F)F)CC5)n4)nc3N1C2` (racemic) [Compound 40, 12,12-dimethyl-8-(3-{2-[1-(trifluoromethyl)cyclopropyl]ethoxy}-1H-pyrazol-1-yl)-18-oxa-2λ^6-thia-3,9,11,23-tetraazatetracyclo[17.3.1.111,14.05,10]tetracosa-1(22),5,7,9,19(23),20-hexaene-2,2,4-trione]?
A: EC50 [1]: < 1000 nM; Max. Activity [1]: ++ (++ is 30-60%); ring closure, isolated yield ([2]; from CC1(C)CC(CCCOc2cccc(S(=O)(=O)NC(=O)c3ccc(-n4ccc(OCCC5(C(F)(F)F)CC5)n4)nc3Cl)n2)CN1, 15-membered ring, K2CO3/CsF/3A MS, DMSO, 37.3 mM, 150.0 °C, 8.0 h): 48%

Q: With `CC1(C)C[C@H]2CCCNc3cccc(n3)S(=O)(=O)NC(=O)c3ccc(-n4ccc(OCCC5C6(CC6)C56CC6)n4)nc3N1C2` [Compound 194, (14R)-8-[3-(2-{Dispiro[2.0.2.1]heptan-7-yl}ethoxy)-1H-pyrazol-1-yl]-12,12-dimethyl-2λ^6-thia-3,9,11,18,23-pentaazatetracyclo[17.3.1.111,14.05,10]tetracosa-1(22),5,7,9,19(23),20-hexaene-2,2,4-trione] as the molecule, how does the EC50 [1] read?
A: The EC50 was under 1000 nM.

Q: And the “Max. Activity” value [1]?
A: Its value is “++ (++ is 30-60%)”.

Q: What about the ring closure, isolated yield ([2]; from CC1(C)C[C@@H](CCCNc2cccc(S(=O)(=O)NC(=O)c3ccc(-n4ccc(OCCC5C6(CC6)C56CC6)n4)nc3Cl)n2)CN1, 15-membered ring, K2CO3, NMP, 72.4 mM, 135.0 °C, 22.0 h) of the same molecule?
A: The ring closure, isolated yield was 57%.

Q: Which EC50 [1] does the source give for `[2H]C([2H])([2H])C1(C([2H])([2H])[2H])C[C@@H]2CCCNc3cccc(n3)S(=O)(=O)NC(=O)c3ccc(-n4ccc(OCCC5C6(CC6)C56CC6)n4)nc3N1C2` [Compound 274, (14S)-8-[3-(2-{Dispiro[2.0.2.1]heptan-7-yl}ethoxy)-1H-pyrazol-1-yl]-12,12-di(trideuterio)methyl-2λ^6-thia-3,9,11,18,23-pentaazatetracyclo[17.3.1.111,14.05,10]tetracosa-1(23),5,7,9,19,21-hexaene-2,2,4-trione] here?
A: The EC50 was under 1000 nM.

Q: And the “Max. Activity” value [1]?
A: The value was “+++ (+++ is >60%)”.

Q: And the ring closure, isolated yield ([2]; from [2H]C([2H])([2H])C1(C([2H])([2H])[2H])C[C@H](CCCNc2cccc(S(=O)(=O)NC(=O)c3ccc(-n4ccc(OCCC5C6(CC6)C56CC6)n4)nc3Cl)n2)CN1, 15-membered ring, K2CO3, NMP, 53.5 mM, 150.0 °C)?
A: The ring closure, isolated yield was 47%.

Q: Which results are given for `CC1(C)CC2CCCn3cc(cn3)S(=O)(=O)NC(=O)c3ccc(-n4ccc(OCCC5(C(F)(F)F)CC5)n4)nc3N1C2` (stereo not drawn) [Compound 110, 20,20-Dimethyl-4-(3-{2-[1-(trifluoromethyl)cyclopropyl]ethoxy}-1H-pyrazol-1-yl)-10λ^6-thia-1,3,9,13,14-pentaazatetracyclo[16.2.1.111,14.02,7]docosa-2,4,6,11(22),12-pentaene-8,10,10-trione]?
A: EC50 [1]: < 1000 nM; Max. Activity [1]: ++ (++ is 30-60%); ring closure, isolated yield ([2]; from CC(C)(C)OC(=O)N1CC(CCCn2cc(S(=O)(=O)NC(=O)c3ccc(-n4ccc(OCCC5(C(F)(F)F)CC5)n4)nc3Cl)cn2)CC1(C)C, 14-membered ring, HCl (Boc off), K2CO3/CsF/3A MS, DMSO, 44.8 mM, 155.0 °C, 2 steps): 36%
